# From patent US20230076527A1, “TREATMENT OF PAROXYSMAL NOCTURNAL HEMOGLOBINURIA” (Apellis Pharmaceuticals, Inc., priority 2020, published 2023)
# Several values for one entry are separate records, joined by “and”; a condition that tells them apart may be missing. Equal entries are not always repeated.
# Tests used:
# [1] = test system: patients with PNH; test: PEGASUS Phase 3 trial, 16-week randomized controlled period: hematologic and fatigue efficacy endpoints; type: in vivo, human; details: for non-inferiority to eculizumab on absolute reticulocyte count / non-inferiority to eculizumab on transfusion avoidance: key secondary endpoint; for non-inferiority to eculizumab on absolute reticulocyte count: margin 10; for non-inferiority to eculizumab on transfusion avoidance: margin -20%
# Source text: The PEGASUS trial protocol consisted of an 8-week screening period, a 52-week treatment period, and a 12-week follow up period.
# The treatment period consisted of three parts: a 4-week run-in period, a 16-week Randomized Controlled Period and a 32-week open-label Study Drug only period.
# During the Randomized Controlled Period, subjects returned to the clinical site at Weeks 1, 2, 4, 6, 8, 12 and 16 for efficacy and safety assessments.
# The primary endpoint in the study was an increase in hemoglobin level from baseline to Week 16 (excluding data before the Randomized Controlled Period). Key secondary endpoints included transfusion avoidance, reduction in reticulocyte count, reduction in LDH level, and changes in Functional Assessment of Chronic Illness Therapy (FACIT)-fatigue scale score, Version 4. […] Hierarchical significance testing for secondary efficacy endpoints was gated on the success of the primary efficacy endpoint. Post hoc analyses included hemoglobin stabilization (defined as avoidance of a >1 g/dL decrease from baseline) in the absence of transfusions and hematologic response to treatment.
# The between-treatment group comparison for the primary efficacy endpoint was performed using a mixed effect model for repeated measures (MMRM) (Mallinckrodt, DID 42:30 (2008)). The model included fixed categorical effects for treatment group, study visit, stratification variables (based on transfusion history and platelet count) and the study visit-bytreatment group interaction, as well as the continuous, fixed covariate of baseline Hb level.
# The number and percentage of subjects with transfusion avoidance were tabulated by treatment group and compared between treatment groups using a stratified Cochran-Mantel Haenszel (CMH) chi-square test. The treatment difference in percentages and 95% confidence interval for the difference were presented using the stratified method (Miettinen, Statistics in Medicine 4:213-226 (1985)).
# The change from baseline at Week 16 in reticulocyte count, LDH level and FACIT-fatigue scale score were analyzed using the same methods described for the primary analysis of the primary efficacy endpoint except using their own baseline as a covariate, using the ITT and mITT sets.
# For any subject who discontinued study treatment, any values collected after discontinuation continued to be used in analyses (Treatment Policy).
# Additionally, the primary endpoint of hemoglobin change from baseline (before first dose of pegcetacoplan) to week 16 and secondary endpoints (transfusion avoidance, change from baseline at week 16 in absolute reticulocyte count and lactate dehydrogenase) were analyzed by subgroups based on number of packed red blood cell transfusions (<4 vs ≥4) within the 12 months prior to Day -28 and platelet count at screening (<100,000 /mm^3 vs >100,000 /mm^3).
# [2] = test system: PNH Type II + III RBCs; test: PEGASUS pharmacodynamics: C3 loading and clone size of PNH red blood cells; type: in vivo, human; details: week 16 versus baseline
# Source text: FIGS. 9B and 9C includes descriptive analysis of observed values, based only on those subjects who had both baseline and week 16 data.
# [3] = test system: patients with PNH; test: PEGASUS post hoc hematologic response categorization; type: in vivo, human; details: 16 weeks
# Source text: Complete response: no transfusions required, stable Hb in the normal range, and no evidence of hemolysis (i.e., LDH ≤1.5× upper limit of normal [ULN], ARC ≤150,000 /µL). Major response: no transfusion, normal Hb, but with evidence of hemolysis (LDH >1.5×ULN and/or ARC >150,000 /µL). Good response: no transfusion, but with chronic mild anemia or evidence of hemolysis. Partial response: chronic moderate anemia and/or occasional transfusions (<3 units/6 months). Minor response: regular transfusions required (3-6 units/6 months). No response: regular and frequent transfusions required (>6 units/6 months).
# [4] = test system: patients with PNH; test: PEGASUS 48-week efficacy results (open-label period); type: in vivo, human
# Protocol: Day 1 to Week 16 was defined as the Randomized Controlled Period, over which endpoints were assessed. After completion of the Randomized Controlled Period (the end of Week 16), all subjects continue into a 32-week Open-Label Study Drug Period in which all subjects receive twice-weekly doses of Study Drug (1,080 mg). During this period, subjects return to the clinical site on Weeks 17, 18, 20, 22 and 24 and every 4 weeks, thereafter, until Week 48 for efficacy and safety assessments.
# [5] = test system: patients with PNH; details: in vivo
# Protocol: (§1) Pharmacokinetics and pharmacodynamics were also assessed, including change from baseline in percentage of PNH Type II + III RBCs at week 16, and change from baseline in percentage of PNH Type II + III RBCs opsonized with C3 at week 16. Incidence and severity of treatment-emergent adverse events (TEAEs), incidence of thromboembolic events, changes from baseline in laboratory parameters, and changes from baseline in electrocardiogram (ECG) parameters were also assessed.
# (§2) The primary endpoint was assessed on ITT set (included all subjects who were randomized), and change from Baseline to Week 16 in Hb level was measured. […] Safety Analysis was conducted in the safety set (which included all subjects who were randomized and received at least 1 dose of monotherapy Study Drug).
# (§3) Subjects were divided into various sets. The Run-in Set included all subjects who received at least one dose of APL-2. The Intent-to-Treat (ITT) Set included all subjects who were randomized. The analyses using this set was based upon the randomized treatment group allocated. The Safety Set included all subjects who were randomized and received at least 1 dose of monotherapy Study Drug. This set was used for safety analyses. The analyses using this set were based upon the actual treatment received. The Modified ITT (mITT) Set included all subjects in the ITT set who received at least one dose of monotherapy beyond their Week 4 after randomization in the Randomized Controlled Period. The analyses using this set were based upon the randomized treatment group allocated. […] Subjects were required to receive their randomized treatment to be included in the set and so analyses using this set were by default based upon the actual treatment group allocated. The Completer Set consisted of all subjects in the ITT set who completed the Week 16 efficacy assessment for the study. The analyses using this set were based upon the randomized treatment group allocated.
# [6] = test system: patients with PNH; test: PEGASUS 48-week safety; details: 48-week study
# [7] = test system: patients with PNH; test: PEGASUS safety, 16-week randomized controlled period
# Protocol: as §1, §2, §3
# [8] = week 16, <4 transfusions stratum
# [9] = week 16, <100,000 /mm^3 platelet stratum
# [10] = week 16, censored for transfusion
# [11] = week 16, ≥4 transfusions stratum
# [12] = week 16, ≥100,000 /mm^3 platelet stratum
# [13] = 16-week randomized, controlled treatment period
substance,measurement,setting,value
"Poly(oxy-1,2-ethanediyl), α-hydro-ω-hydroxy-, 15,15ʹ -diester with N-acetyl-L-isoleucyl-L-cysteinyl-L-valyl-1-methyl-L-tryptophyl-L-glutaminyl-L-α-aspartyl-L-tryptophylglycyl-L-alanyl-L-histidyl-L-arginyl-L-cysteinyl-L-threonyl-2-[2-(2-aminoethoxy)ethoxy]acetyl-N^6-carboxy-L-lysinamide cyclic (2-->12)-(disulfide) [pegcetacoplan]",patients achieving at least a three-point improvement in FACIT-fatigue score,[1]; 16 weeks,73%
same,patients achieving reticulocyte normalization,"[1]; 16 weeks, 30-120 × 10^9 cells/L",78%
same,patients achieving LDH normalization,"[1]; 16 weeks, normal range 113-226 U/L",71%
same,"transfusion avoidance, adjusted risk difference versus eculizumab","[1]; <4 transfusions group, 95% CI 26.2%-81.3%",53.8%
same,"FACIT-fatigue score, adjusted mean change from baseline to Week 16",[1]; MMRM,9.2
same,"absolute reticulocyte count, adjusted mean decrease from baseline to week 16",[1]; baseline 217×10^9 /L,1.35e+11 L⁻¹
same,non-inferiority to eculizumab on absolute reticulocyte count,[1],Non-inferiority was met
same,non-inferiority to eculizumab on absolute reticulocyte count,[1]; listed as Pegcetacoplan,met non-inferiority
same,non-inferiority to eculizumab on transfusion avoidance,[1],Non-inferiority was met
same,non-inferiority to eculizumab on transfusion avoidance,[1]; listed as Pegcetacoplan,met non-inferiority
same,subjects who required transfusions post randomization,"[1]; out of 41 (pegcetacoplan group), out of 39 (eculizumab group)",6 subjects
same,proportion of transfusion-free patients,"[1]; over 16 weeks, <4 transfusions within 12 months prior to Day -28",85%
same,transfusion avoidance (transfusion-free patients),"[1]; over 16 weeks, all patients",85.4% and 85%
same,proportion of transfusion-free patients,"[1]; over 16 weeks, platelet stratum <100,000 /mm^3",83.3%
same,proportion of transfusion-free patients,"[1]; over 16 weeks, platelet stratum ≥100,000 /mm^3",86.2%
same,proportion of transfusion-free patients,"[1]; over 16 weeks, ≥4 transfusions within 12 months prior to Day -28",85.7% and 86%
same,"transfusion avoidance, adjusted risk difference versus eculizumab","[1]; overall patients, 95% CI 48.3%-76.8%",62.5%
same,hemoglobin higher than the eculizumab arm,[1]; week 16,53%
same,mean hemoglobin change from baseline regardless of baseline platelet count strata,[1]; week 16,significantly increased
same,LDH LS mean change from baseline,[1]; [8],-52.31 U/L
same,absolute reticulocyte count LS mean change from baseline,[1]; [8],-152.59 × 10^9 cells/L
same,LDH LS mean change from baseline,[1]; [9],-73.14 U/L
same,absolute reticulocyte count LS mean change from baseline,[1]; [9],-147.17 × 10^9 cells/L
same,adjusted mean hemoglobin change from baseline,"[1]; week 16, all patients, baseline 8.7 g/dL, post-transfusion data excluded",2.4 g/dL
same,proportion of patients achieving hemoglobin normalization,[1]; [10],34%
same,proportion of patients achieving ≥2 g/dL improvement in hemoglobin,[1]; [10],61%
same,proportion of patients achieving hemoglobin stabilization,"[1]; week 16, censored for transfusion, avoidance of >1 g/dL decrease from baseline",85%
same,adjusted mean hemoglobin change from baseline,"[1]; week 16, fewer than 4 transfusions within 12 months prior to Day -28, baseline 8.9 g/dL",2.97 g/dL
same,indirect bilirubin level,"[1]; week 16, including post-transfusion data",13.8 µmol/L
same,non-inferiority to eculizumab in the change from baseline in LDH,"[1]; week 16, margin 20",did not demonstrate non-inferiority
same,mean FACIT-fatigue score,"[1]; week 16, observed data, baseline 32.2 (pegcetacoplan), 31.6 (eculizumab)",41.8 (SD 9.61)
same,improvement in adjusted means of hemoglobin versus eculizumab,"[1]; week 16, p<0.0001, MMRM",3.8 g/dL
same,LDH LS mean change from baseline,[1]; [11],-54.99 U/L
same,absolute reticulocyte count LS mean change from baseline,[1]; [11],-124.75 × 10^9 cells/L
same,LDH LS mean change from baseline,[1]; [12],-41.96 U/L
same,absolute reticulocyte count LS mean change from baseline,[1]; [12],-137.28 × 10^9 cells/L
same,LDH adjusted mean change from baseline,"[1]; week 16, baseline 258 U/L (pegcetacoplan), 309 U/L (eculizumab)",-15 U/L
same,"transfusion avoidance, adjusted risk difference versus eculizumab","[1]; ≥4 transfusions group, 95% CI 64.2%-98.5%",81.4%
same,C3 loading on Type III RBCs,[2],decreased
same,PNH clone size (Type II + III),[2],increased
same,complete hematologic responses,[3]; ITT,39%
same,good hematologic responses,[3]; ITT,31.7%
same,minor hematologic responses,[3]; ITT,4.9%
same,no hematologic response,[3]; ITT,0%
same,partial hematologic responses,[3]; ITT,14.6%
same,patients achieving at least a good hematological response,"[3]; 29/41 pegcetacoplan, 2/39 eculizumab",70.7%
same,"hemoglobin, mean improvement from baseline",[4]; Week 48,2.7 g/dL
same,patients who remained transfusion free,[4]; throughout the 48-week study,73%
same,"hemoglobin, mean increase from baseline as stated in Example 3",[4]; week 16,2.7 g/dL
same,All Infections,[5],12 (29.3) n(%)
same,Sepsis,[5],0 n(%)
same,cases of meningitis,[6],No cases
same,diarrhea,[6],21%
same,discontinuations due to hemolysis,[6],five
same,hemolysis (adverse event),[6],24%
same,injection site reactions,[6],36%
same,patients who experienced a serious adverse event,[6]; 24 of 80 pegcetacoplan monotherapy-treated patients,30%
same,deaths,"[6]; due to COVID-19, unrelated to study treatment",One death
same,SAEs assessed to be possibly related to study treatment,[6]; five of the SAEs,6%
same,patients who discontinued due to adverse events,[6]; twelve out of 80 patients,15%
same,LDH increase in subjects discontinuing due to hemolysis,[7]; 3 subjects of the pegcetacoplan group,3-11 × ULN
same,hemolysis (adverse event),"[7]; 16-week period, four patients pegcetacoplan, nine patients eculizumab",9.8%
same,patients who experienced a serious adverse event,"[7]; 16-week period, seven of 41 pegcetacoplan, 6 of 39 eculizumab",17.1%
same,Abdominal Pain (adverse event),[7]; 16-week randomized period,5 (12.2) n(%)
same,Any TEAE,[7]; 16-week randomized period,36 (87.8) n(%)
same,Back Pain (adverse event),[7]; 16-week randomized period,3 (7.3) n(%)
same,Diarrhea (adverse event),[7]; 16-week randomized period,9 (22.0) n(%)
same,Discontinuations due to AE,[7]; 16-week randomized period,3 (7.3) n(%)
same,Dizziness (adverse event),[7]; 16-week randomized period,1 (2.4) n(%)
same,Headache (adverse event),[7]; 16-week randomized period,3 (7.3) n(%)
same,Meningitis,[7]; 16-week randomized period,0 n(%)
same,Serious AE,[7]; 16-week randomized period,7 (17.1) n(%)
same,cases of meningitis,[7]; 16-week randomized period,No cases
same,deaths,[7]; 16-week randomized period,no deaths
same,fatigue (adverse event),[7]; 16-week randomized period,2 (4.9) n(%)
same,hemolysis (adverse event),[7]; 16-week randomized period,4 (9.8) n(%)
same,injection site reactions,[7]; 16-week randomized period,15 (35.6) n(%)
same,tolerability,[7]; 16-week randomized period,generally well tolerated
same,diarrhea,[7]; [13],22.0%
same,fatigue (adverse event),[7]; [13],4.9%
same,headache,[7]; [13],7.3%
same,injection site reactions,[7]; [13],36.6%
same,Adverse Events as primary reason for withdrawal from study treatment (all reported as hemolysis),[7]; through week 16,3 (7.3) n (%)
